Experimental data from US20230321101A1, “METHODS AND USES OF HALOFUGINONE” (The Regents of the University of California, priority 2020, published 2023).
pEC50, pIC50: −log10 of the molar value. “Also recorded” adds a separate entry of the source. Read-outs that look alike come from different tables or passages of the source.

Assays:
authentic SARS-CoV-2 = assay: microbe, parasite or virus in culture; assay type: cell-based
[1] = tested on: recombinant SARS-CoV-2 spike RBD protein binding to Hep3B cells; conditions: for decrease of SARS-CoV-2 RBD binding compared to excipient control (DMSO): 18 h; for effect on halofuginone-induced reduction in spike protein binding: co-incubated with halofuginone
[2] = tested on: cell surface heparan sulfate of Hep3B cells; assay: Heparan sulfate presentation by anti-HS mAb 10E4 staining of Hep3B cells; assay type: cell-based, human; conditions: for effect on halofuginone-induced reduction in heparan sulfate production (10E4 binding): co-incubated with halofuginone
HIV-1 = HIV-1 antiviral immunofluorescence assay in HeLa Tzmbl cells; assay type: cell-based; conditions: HeLa Tzmbl
Procedure: (§1) Experimental Procedure. The antiviral activity of 8 dilutions of each compound was explored by adding the drug to the assay cells 2 h after infection with the different viruses. Virus and compounds were left on the cells for the entire duration of the experiment (28 h for Zika virus and 24 h for all other viruses). The cytotoxicity of the same range of concentrations of compounds was determined by LDH release assay in the same cell lines.
(§2) Cell plating. Cells were detached and counted following SOP-RA 003 and SOP-RA 004. Count was recorded in the Cell Count Logbook, Volume 1. For each virus four plates were seeded, two for the antiviral assay and two for the cytotoxicity assay. Cells were seeded in 100 μl/well of complete media at the following densities: • Huh7: 8,000 cells/well (Dengue) • SH-SY5Y: 10,000 cells/wells (Zika) • HeLa Tzmbl: 8,000 cells/well (HIV)
(§3) Compounds dilutions. The 22.1 mM stocks were further diluted to 1 mM in DMSO by adding 211 μl of DMSO to 10 μl of compound. Three serial dilutions were prepared in different media for different viruses/cells. For each dilution, drugs were prepared at twice the final concentration in 50 μl volume, because they are diluted to the final concentration by an equal volume of virus or media.
(§4) Infection. Cells were infected in 50 μl of supplemented media/well at the following multiplicity of infection (MOI): • DENV-2, MOI 1 • ZIKV, MOI 5 • HIV, MOI 0.5
(§5) After removing culture media from cells, 50 μl of virus dilution were added to all wells except Column 11 (uninfected control), where the same volume of supplemented media was added. […]
(§6) Infectivity readout. […] The primary antibodies were detected with an Alexa-488 conjugate secondary antibody (Life Technologies, A11001), and nuclei were stained with Hoechst. Images were acquired on a CellInsight CX5 high content platform (Thermo Scientific) using a 4× objective, and percentage infection calculated using CellInsight CX5 software (infected cells/total cells×100).
(§7) Determination of % Inhibition—IF assay. Normalized percentages of inhibition were calculated using the following formula: […]

ZIKV (Zika virus) = assay: ZIKV antiviral immunofluorescence assay in SH-SY5Y cells; assay type: cell-based
Procedure: as §1, §2, §3, §4, §5, §6, §7

DENV-2 (Dengue) = assay: DENV-2 antiviral immunofluorescence assay in Huh7 cells; assay type: cell-based
Procedure: as §1, §2, §3, §4, §5, §6, §7

Vero E6 cells = assay: Cell number of Vero E6 cells treated for 24 h; assay type: cell-based, African green monkey; conditions: Vero E6, 24 h
Procedure: FIG. 32A and FIG. 32B. […] A-B, Measurement of authentic SARS-CoV-2 infection and cell number in Vero E6 cells treated with (A) halofuginone (HF) or (B) the 2R,3S-(+) enantiomer for 24 h. Data shown as mean±S.D.

[3] = Severe acute respiratory syndrome coronavirus 2, Vero C1008, read-out: IC50 of SARS-CoV-2 infection
[4] = ProSA at 50 μM, halofuginone 500 nM

Structure (SMILES): Nc1ncnc2c1ncn2C1OC(COS(=O)(=O)NC(=O)[C@@H](N)CO)[C@@H](O)[C@H]1O (stereo partly shown) [SerSA, seryl-sulfamoyl adenosine]
- effect on authentic SARS-CoV-2 infection (authentic SARS-CoV-2; Vero E6): Neither of these AARS inhibitors were able to significantly attenuate viral replication
- effect on spike (RBD) protein binding [1]: Neither of these AARS inhibitors were able to significantly attenuate

Structure (SMILES): CNC(=O)Nc1ccc2c(c1)CC[C@@]21OC(=O)N(CC(=O)N(Cc2ccc(F)cc2)[C@@H](C)C(F)(F)F)C1=O [A-485]
- effect on heparan sulfate presentation (10E4 binding) [2]: reduced heparan sulfate presentation

Structure (SMILES): CCC(CC)COC(=O)[C@H](C)N[P@](=O)(OC[C@H]1O[C@@](C#N)(c2ccc3c(N)ncnn23)[C@H](O)[C@@H]1O)Oc1ccccc1 [Remdesivir]
- pIC50 (authentic SARS-CoV-2; [3]): 5.10

Structure (SMILES): Nc1ncn([C@H]2C[C@H](O)[C@@H](CO)O2)c(=O)n1 [5-Azadeoxycitidine]
- effect on heparan sulfate presentation (10E4 binding) [2]: reduced heparan sulfate presentation

Structure (SMILES): Nc1ncn([C@@H]2O[C@H](CO)[C@@H](O)[C@H]2O)c(=O)n1 [5-Azacytidine]
- effect on heparan sulfate presentation (10E4 binding) [2]: reduced heparan sulfate presentation

Structure (SMILES): C/C=C1\NC(=O)[C@H]2CSSCC/C=C/[C@H](CC(=O)N[C@H](C(C)C)C(=O)N2)OC(=O)[C@H](C(C)C)NC1=O [Romidepsin]
- decrease of SARS-CoV-2 RBD binding compared to excipient control (DMSO) ([1]; 1 μM): ~50%

Structure (SMILES): CCN(CC)CCCC(C)Nc1ccnc2cc(Cl)ccc12 (stereo not shown) [chloroquine]
- pIC50 (authentic SARS-CoV-2; [3]): 5.72

Structure (SMILES): COc1cc2c(NC3CCN(C(C)C)CC3)nc(C3CCCCC3)nc2cc1OCCCN1CCCC1 [UNC0638]
- effect on heparan sulfate presentation (10E4 binding) [2]: increased the total amount of heparan sulfate

Structure (SMILES): C[C@@H]1C[C@H](C)C[C@H](C)[C@@H](O)CC(=O)O[C@H]([C@@H]2CCC[C@H]2C(=O)O)C/C=C/C=C(/C#N)[C@H](O)[C@@H](C)C1 [borrelidin]
- effect on authentic SARS-CoV-2 infection (authentic SARS-CoV-2; Vero E6): Neither of these AARS inhibitors were able to significantly attenuate viral replication
- effect on heparan sulfate presentation (10E4 binding) [2]: Inhibits HS production
- effect on spike (RBD) protein binding [1]: Neither of these AARS inhibitors were able to significantly attenuate
- effect on spike (RBD) protein binding ([1]; listed as Borrelidin): not SARS-CoV-2 Spike RBD protein binding

Structure (SMILES): CC(C)(C)OC(=O)N1CCCC(O)[C@H]1CC(=O)Cn1cnc2cc(Br)c(Cl)cc2c1=O (stereo partly shown)
- antiviral activity against HIV-1 (HIV-1): did not display antiviral activity
- antiviral activity against ZIKV (ZIKV (Zika virus)): did not display antiviral activity
- antiviral activity against DENV-2 (DENV-2 (Dengue); Huh7): did not display antiviral activity

Structure (SMILES): O=C(COc1ccc(Cl)cc1)NC1CCC(NC(=O)COc2ccc(Cl)cc2)CC1 (stereo not shown) [ISRIB]
- effect on heparan sulfate presentation (10E4 binding) [2]: Neither PERKi nor ISRIB affected 10E4 or spike RBD binding
- effect on halofuginone-induced reduction in heparan sulfate production (10E4 binding) [2]: unable to attenuate the halofuginone-induced reduction in heparan sulfate production; also recorded: nor ISRIB reversed the halofuginone induced reduction in 10E4 or spike protein binding
- effect on spike (RBD) protein binding [1]: Neither PERKi nor ISRIB affected 10E4 or spike RBD binding

Structure (SMILES): c1nn(C2CCOCC2)cc1Nc1ncc2nnn(-c3ccc4cn[nH]c4c3)c2n1 [GCN2-IN-1]
- effect on heparan sulfate presentation (10E4 binding) [2]: reduced in heparan sulfate production; also recorded: reduced 10E4 and spike RBD binding almost to the same extent as halofuginone
- effect on halofuginone-induced reduction in heparan sulfate production (10E4 binding) [2]: reversed the halofuginone induced reduction in 10E4 or spike protein binding
- effect on halofuginone-induced reduction in spike protein binding [1]: reversed the halofuginone induced reduction in 10E4 or spike protein binding

Structure (SMILES): Cn1cc(-c2ccc3c(c2)CCN3C(=O)Cc2cccc(C(F)(F)F)c2)c2c(N)ncnc21 [GSK2606414]
- effect on heparan sulfate presentation (10E4 binding) [2]: Neither PERKi nor ISRIB affected 10E4 or spike RBD binding
- effect on halofuginone-induced reduction in heparan sulfate production (10E4 binding) [2]: reversed the halofuginone induced reduction in 10E4 or spike protein binding
- effect on halofuginone-induced reduction in heparan sulfate production (10E4 binding) ([2]; listed as PERKi): unable to attenuate the halofuginone-induced reduction in heparan sulfate production
- effect on spike (RBD) protein binding [1]: Neither PERKi nor ISRIB affected 10E4 or spike RBD binding
- effect on halofuginone-induced reduction in spike protein binding [1]: reversed the halofuginone induced reduction in 10E4 or spike protein binding
- effect on halofuginone-induced reduction in spike protein binding ([1]; listed as PERKi): unable to attenuate the halofuginone-induced reduction in heparan sulfate production and Spike protein binding

Structure (SMILES): O=C(CC1NCCCC1O)Cn1cnc2cc(Br)c(Cl)cc2c1=O (single isomer, unassigned) [2S,3R-(−)enantiomer]
- effect on authentic SARS-CoV-2 infection (authentic SARS-CoV-2; Vero E6): No inhibition was observed

Structure (SMILES): O=C(/C=C/c1cccc(S(=O)(=O)Nc2ccccc2)c1)NO [Belinostat]
- effect on heparan sulfate presentation (10E4 binding) [2]: increased 10E4 staining
- effect on spike (RBD) protein binding [1]: reduced spike protein by more than two-fold
- decrease of SARS-CoV-2 RBD binding compared to excipient control (DMSO) ([1]; 5 μM): ~50%

Structure (SMILES): O=c1c2cc(Cl)c(Br)cc2ncn1C[C@H](O)C[C@H]1NCCC[C@@H]1O [halofuginol]
- pEC50 (HIV-1; MOI 0.5, drug added 2 h after infection, 24 h, read-out: EC50 HIV-1): 6.46
- effect on authentic SARS-CoV-2 infection (authentic SARS-CoV-2; Vero E6): inhibited authentic SARS-CoV-2 infection of Vero E6 cells; also recorded: inhibit infection by authentic SARS-CoV-2 when provided at higher doses
- effect on heparan sulfate presentation (10E4 binding) [2]: significantly decreased 10E4 and spike RBD binding
- effect on spike (RBD) protein binding [1]: significantly decreased 10E4 and spike RBD binding
- antiviral activity against ZIKV (ZIKV (Zika virus)): antiviral activity only against HIV-1
- inhibition of DENV-2 (DENV-2 (Dengue); Huh7, highest concentration tested (1000 nM)): ~60%

Structure (SMILES): CC(C)(C)OC(=O)N1CCC[C@H](O)[C@H]1CC(=O)Cn1cnc2cc(Br)c(Cl)cc2c1=O [MAZ1310]
- effect on authentic SARS-CoV-2 infection (authentic SARS-CoV-2; Vero E6): did not have any activity
- effect on heparan sulfate presentation (10E4 binding) [2]: had no effect
- effect on spike (RBD) protein binding [1]: had no effect

Structure (SMILES): O=C(C[C@H]1NCCC[C@@H]1O)Cn1cnc2cc(Br)c(Cl)cc2c1=O [2R,3S-(+) halofuginone]
- effect on authentic SARS-CoV-2 infection (authentic SARS-CoV-2; Vero E6): inhibit SARS-CoV-2 infection
- pIC50 (authentic SARS-CoV-2; Vero E6, read-out: IC50 of SARS-CoV-2 infectivity, enantiomer comparison): 7.92
- cell proliferation (cell number) (Vero E6 cells): inhibit SARS-CoV-2 infection and cell proliferation
- effect on heparan sulfate presentation (10E4 binding) [2]: inhibited HS production
- effect on spike (RBD) protein binding [1]: inhibited HS production and authentic SARS-CoV-2 spike RBD protein binding

Structure (SMILES): Nc1ncnc2c1ncn2[C@@H]1O[C@H](COS(=O)(=O)NC(=O)[C@@H]2CCCN2)[C@@H](O)[C@H]1O [ProSA, prolyl-sulfamoyl adenosine]
- effect on authentic SARS-CoV-2 infection (authentic SARS-CoV-2; Vero E6): inhibited authentic SARS-CoV-2 infection of Vero E6 cells; also recorded: inhibit infection by authentic SARS-CoV-2 when provided at higher doses
- effect on heparan sulfate presentation ([2]; 1 μM): unable to inhibit heparan sulfate inhibition and Spike protein binding
- effect on HS presentation (mAb 10E4 stain) [2, 4]: prevented HS presentation and spike RBD binding to similar levels as treatment with halofuginone
- effect on Spike protein binding ([1]; 1 μM): unable to inhibit heparan sulfate inhibition and Spike protein binding
- effect on spike RBD binding [1, 4]: prevented HS presentation and spike RBD binding to similar levels as treatment with halofuginone

Structure (SMILES): Nc1ncnc2c1c(I)cn2[C@@H]1O[C@H](CO)[C@@H](O)[C@H]1O [5-Iodotubercidin]
- effect on heparan sulfate presentation (10E4 binding) [2]: reduced heparan sulfate presentation
